How the values were obtained:
Type in all cases: cell-based, human
NOX [1] = assay: Amplex Red, extracellular hydrogen peroxide, DMSO-differentiated HL60 cells; details: DPI 10 μM, % of the activity in control cells, 'usually'
Description: Human acute myeloid leukemia cell line HL-60 was cultured in RPMI 1640 (Invitrogen) supplemented with 10% heat-inactivated calf serum, 2 mM glutamine, 100 U/mL penicillin (Sigma), and 100 μg streptomycin (Sigma) at 37° C. under a humidified atmosphere of 5% CO2. HL60 differentiation to the neutrophil phenotype was triggered by adding Me2SO (final concentration 1.25% v/v for 6 days) to the culture medium.
(§1) Extracellular hydrogen peroxide was measured using Amplex UltraRed (Molecular Probes). Cells were trypsinized (1× Trypsin-EDTA), collected by centrifugation, and resuspended in HBSS supplemented with 1% glucose. Cells were seeded into black 96-well plates at a density of 50,000 cells in 200 μl testing buffer (HBSS 1% glucose containing 0.005 U/mL horseradish peroxidase (Roche) and 50 μM Amplex Red in the presence or absence of compounds according to the invention. As a control, DPI was included at a final concentration of 10 μM The plates were placed in the fluorescent Optima Fluorescent plate reader and kept at 37° C. during 20 min. Fluorescence was measured for […] with excitation and emission wavelengths of 544 nm and 590 nm respectively. NOX activities were expressed as % of the activity in control cells. Residual activity of DPI-treated cells was usually <10%.

NOX [2] = assay: Nitroblue tetrazolium (NBT) superoxide test in cells; details: DPI 10 μM, % of the activity in control cells, 'usually'
Description: Human microglia cell line (HMC3, human microglia clone 3) (Janabi et al, 1995, Neurosci Lett 195:105) were cultured in MEM (Eagle's minimum essential medium) containing 10% FBS with 50 U/ml penicillin G sodium 50 μg/ml streptomycin sulfate, and incubated at 37° C. for 24 hours. IFN-γ (human IFN-γ, Roche. 11 040 596 001) was added to the culture medium for a final concentration of 10 ng/ml 24 h, before detection of O2^− formation. […]
Intracellular and extracellular superoxide was measured by a colorimetric technique using a quantitative nitroblue tetrazolium (NBT) test. SOD-inhibitable conversion of NBT to formazan, a fine blue precipitate, in the presence of superoxide anion was measured using Fluostar Optima spectrometer (BMG labtech). […] The absorption was measured at 630 nm. For calculation, the absorbance at 630 nm was normalized for each individual well. […] NOX activities were expressed as % of the activity in control cells. […]

NOX [3] = assay: Chemiluminescence (luminol) ROS measurement in cells; details: % of the activity in control cells, 'usually'
Description: as §1
ROS was measured using the chemiluminescent probe luminol. Cells were cultured and plated as for Amplex Red except that the Amplex Red agent was replaced by 10 μg/mL luminol (Sigma 09235). Light emission was recorded continuously at 37° C. for 60 minutes using the luminescence function of the FluoStar Optima fluorescent plate reader. The mean of the four blank values was subtracted from each corrected value for each time point. NOX activities were expressed as % of the activity in control cells. […]

NOX [4] = assay: H2DCF-DA fluorescence in TGF-β stimulated HUVEC; details: % of the activity in control cells, 'usually'
Description: HUVEC are cultured in endothelial basal medium supplemented with hydrocortisone (1 μg/mL, CalbioChem), bovine brain extract (12 μg/mL), gentamicin (50 μg/mL, CalbioChem), amphotericin B (50 ng/mL, CalBioChem EGF (10 ng/mL, and 10% FCS until the fourth passage. When the fifth passage was started, cells were cultured with a lower concentration of FCS (2%) in the absence of EGF, if not indicated otherwise. All experiments were done with cells of the fifth passage. The cells were incubated with OxLDL (oxidized low-density lipoprotein) or its buffer as control for 24 h, before detection of O2^− formation.
HUVEC were plated on coverslips and made quiescent overnight in 0.5% BSA before stimulation with TGF-β. Cells were loaded for 10 minutes with 5 μM CM-H2DCFDA in phenol-red-free medium in the dark and then treated with TGF-β (R&D Systems) in the presence or absence of compounds according to the invention. Cells were then visualized by immunofluorescence microscopy after fixation and staining of the nuclei with DAPI or examined live using confocal microscopy. DCF fluorescence was visualized at an excitation wavelength of 488 nm and emission at 515 to 540 nm. […] For calculation, the absorbance at […] was normalized to absorbance at […] for each individual well. […] NOX activities were expressed as % of the activity in control cells. […]

Measured: Residual activity of DPI-treated cells

c1ccc([I+]c2ccccc2)cc1 [DPI, Diphenyl-iodonium]
< 10%: all assays above

— patent US9073919B2, “Pyrazolo pyridine derivatives as NADPH oxidase inhibitors” (GENKYOTEX SA, priority 2007, dated 2015)
